Experimental data published in patent US9512089B2, “Tetrazole-substituted arylamides as P2X3 and P2X2/3 antagonists” (Roche Palo Alto LLC, priority 2007, dated 2016).

Target: T1, P2X2/3 receptor (Homo sapiens, UniProt P56373+Q9UBL9)
T1 construct: expressed in transfected cells; host or cells: CHO-K1
T1 sequence (P56373 1-397): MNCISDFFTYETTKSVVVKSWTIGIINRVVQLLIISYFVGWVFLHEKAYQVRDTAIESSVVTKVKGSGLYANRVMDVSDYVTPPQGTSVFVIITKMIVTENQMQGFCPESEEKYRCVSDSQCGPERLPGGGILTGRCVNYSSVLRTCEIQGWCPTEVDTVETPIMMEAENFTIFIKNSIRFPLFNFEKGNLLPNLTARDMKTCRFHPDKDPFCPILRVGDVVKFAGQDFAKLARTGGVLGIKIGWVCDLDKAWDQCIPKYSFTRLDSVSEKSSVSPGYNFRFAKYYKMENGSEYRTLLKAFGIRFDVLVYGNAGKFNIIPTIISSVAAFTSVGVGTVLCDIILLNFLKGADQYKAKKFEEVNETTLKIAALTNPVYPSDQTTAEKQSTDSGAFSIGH
T1 sequence (Q9UBL9 1-471): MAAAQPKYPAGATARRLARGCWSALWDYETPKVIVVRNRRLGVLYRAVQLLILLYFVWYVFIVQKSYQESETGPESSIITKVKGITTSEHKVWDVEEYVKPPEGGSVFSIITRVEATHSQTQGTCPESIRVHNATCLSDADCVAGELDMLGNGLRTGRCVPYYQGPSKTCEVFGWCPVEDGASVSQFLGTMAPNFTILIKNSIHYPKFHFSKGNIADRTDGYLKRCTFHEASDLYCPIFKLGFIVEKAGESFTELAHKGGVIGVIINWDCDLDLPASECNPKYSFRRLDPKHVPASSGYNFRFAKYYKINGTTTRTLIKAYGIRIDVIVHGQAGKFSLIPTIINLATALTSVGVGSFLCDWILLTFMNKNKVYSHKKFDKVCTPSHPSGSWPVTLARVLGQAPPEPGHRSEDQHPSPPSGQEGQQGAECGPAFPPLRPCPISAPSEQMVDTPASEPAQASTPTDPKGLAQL
Experiment: P2X2/3 FLIPR (Fluorometric Imaging Plate Reader) assay
Format: cell-based
Conditions: CHO-K1 cells transfected with human P2X2/3; agonist α,β-meATP 5 μM; Fluo-3 fluorescence
Procedure: CHO-K1 cells were transfected with cloned rat P2X3 or human P2X2/3 receptor subunits and passaged in flasks. 18-24 hours before the FLIPR experiment, cells were released from their flasks, centrifuged, and resuspended in nutrient medium at 2.5×10^5 cells/ml. The cells were aliquoted into black-walled 96-well plates at a density of 50,000 cells/well and incubated overnight in 5% CO2 at 37° C. On the day of the experiment, cells were washed in FLIPR buffer (calcium- and magnesium-free Hank's balanced salt solution, 10 mM HEPES, 2 mM CaCl2, 2.5 mM probenecid; FB). Each well received 100 μl FB and 100 μl of the fluorescent dye Fluo-3 AM [2 μM final conc.]. […]
Test compounds (dissolved in DMSO at 10 mM and serially diluted with FB) or vehicle were added to each well (25 μl of a 4× solution) and allowed to equilibrate for 20 minutes at room temperature. The plates were then placed in the FLIPR and a baseline fluorescence measurement (excitation at 488 nm and emission at 510-570 nm) was obtained for 10 seconds before a 100 μl/well agonist or vehicle addition. […] Fluorescence was measured for an additional 2 minutes at 1 second intervals after agonist addition. A final addition of ionomycin (5 μM, final concentration) was made to each well of the FLIPR test plate to establish cell viability and maximum fluorescence of dye-bound cytosolic calcium. […]

IC50: ~7.94 nM
SMILES: CCc1nnnn1-c1cc(C(=O)NC(C)c2cnccn2)cc(-c2ccc(C)cc2)c1 (stereo not shown) [5-(5-ethyl-tetrazol-1-yl)-4′-methyl-biphenyl-3-carboxylic acid (1-pyrazin-2-yl-ethyl)-amide]
